Data taken from paper PMC6934184, “Selective DNA-PKcs inhibition extends the therapeutic index of localized radiotherapy and chemotherapy” (The Journal of Clinical Investigation, 2019).

Target: T1, RET (Homo sapiens, UniProt P07949)
T1 construct: purchased Thermo Fisher Scientific (Life Technologies) SelectScreen
Assay: SelectScreen Z'LYTE
Type: biochemical
Summary of the method: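 Percent values come from Thermo SelectScreen profiling of NU5455, combining activity and binding assays. CSF1R was run in Z'LYTE format at Km app ATP, and CAMK1 in Adapta format with ATP listed at 10.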

T1 sequence (P07949 29-1114): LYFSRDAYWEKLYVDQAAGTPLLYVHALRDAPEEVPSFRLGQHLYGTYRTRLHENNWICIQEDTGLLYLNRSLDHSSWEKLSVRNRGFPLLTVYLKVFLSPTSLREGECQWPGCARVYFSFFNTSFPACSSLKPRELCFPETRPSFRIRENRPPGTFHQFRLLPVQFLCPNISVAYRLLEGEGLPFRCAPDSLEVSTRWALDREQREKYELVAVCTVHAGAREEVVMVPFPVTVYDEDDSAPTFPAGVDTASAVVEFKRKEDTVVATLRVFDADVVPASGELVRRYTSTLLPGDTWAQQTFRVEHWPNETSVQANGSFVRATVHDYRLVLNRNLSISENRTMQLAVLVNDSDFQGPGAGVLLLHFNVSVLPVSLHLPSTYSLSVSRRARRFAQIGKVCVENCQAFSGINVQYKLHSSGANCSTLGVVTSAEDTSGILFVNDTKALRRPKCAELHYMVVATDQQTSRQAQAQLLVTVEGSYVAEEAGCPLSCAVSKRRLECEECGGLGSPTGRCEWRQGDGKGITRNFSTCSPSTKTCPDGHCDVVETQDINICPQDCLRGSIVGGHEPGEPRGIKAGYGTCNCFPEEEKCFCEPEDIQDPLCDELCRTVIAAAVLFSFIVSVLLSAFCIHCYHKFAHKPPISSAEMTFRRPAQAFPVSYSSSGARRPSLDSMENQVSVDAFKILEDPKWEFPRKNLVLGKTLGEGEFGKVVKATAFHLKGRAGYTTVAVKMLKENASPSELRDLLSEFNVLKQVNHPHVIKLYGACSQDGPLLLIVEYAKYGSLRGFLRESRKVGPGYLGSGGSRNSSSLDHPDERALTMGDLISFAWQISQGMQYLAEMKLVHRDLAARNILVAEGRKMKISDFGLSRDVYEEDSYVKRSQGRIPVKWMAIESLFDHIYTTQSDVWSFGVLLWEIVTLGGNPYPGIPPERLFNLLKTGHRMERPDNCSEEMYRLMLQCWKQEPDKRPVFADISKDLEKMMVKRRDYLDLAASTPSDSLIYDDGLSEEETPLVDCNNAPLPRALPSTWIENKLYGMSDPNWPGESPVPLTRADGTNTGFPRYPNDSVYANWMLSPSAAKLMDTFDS

For `CN(C(=O)CN1CCOCC1)c1ccc2sc3c(-c4cccc5c(=O)cc(N6CC7CCC(C6)O7)oc45)cccc3c2c1` [NU5455], the inhibition at 1 µM was 5.2%.
